The values that follow come from ChEMBL document CHEMBL4308826, “Small Molecule Allosteric Modulators of G-Protein-Coupled Receptors: Drug-Target Interactions” (J Med Chem, 2018).

For test [1], the target named is T1, Proteinase-activated receptor 2 (Homo sapiens, UniProt P55085).
T1 sequence (P55085 whole entry): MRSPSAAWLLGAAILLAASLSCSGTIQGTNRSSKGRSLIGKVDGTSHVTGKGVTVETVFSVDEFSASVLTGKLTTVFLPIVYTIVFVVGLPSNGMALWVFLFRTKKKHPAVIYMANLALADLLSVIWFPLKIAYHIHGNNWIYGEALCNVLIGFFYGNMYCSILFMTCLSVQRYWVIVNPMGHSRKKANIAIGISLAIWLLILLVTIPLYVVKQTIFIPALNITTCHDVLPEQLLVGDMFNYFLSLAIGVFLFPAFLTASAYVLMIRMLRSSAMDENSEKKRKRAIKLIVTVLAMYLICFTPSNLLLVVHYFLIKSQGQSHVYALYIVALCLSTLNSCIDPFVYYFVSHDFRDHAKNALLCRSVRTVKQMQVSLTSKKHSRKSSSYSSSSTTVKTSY
The test is described as follows: Antagonist activity at human PAR2.

Test [2] deals with T2, Proteinase-activated receptor 4 (Homo sapiens, UniProt Q96RI0).
T2 sequence (Q96RI0 whole entry): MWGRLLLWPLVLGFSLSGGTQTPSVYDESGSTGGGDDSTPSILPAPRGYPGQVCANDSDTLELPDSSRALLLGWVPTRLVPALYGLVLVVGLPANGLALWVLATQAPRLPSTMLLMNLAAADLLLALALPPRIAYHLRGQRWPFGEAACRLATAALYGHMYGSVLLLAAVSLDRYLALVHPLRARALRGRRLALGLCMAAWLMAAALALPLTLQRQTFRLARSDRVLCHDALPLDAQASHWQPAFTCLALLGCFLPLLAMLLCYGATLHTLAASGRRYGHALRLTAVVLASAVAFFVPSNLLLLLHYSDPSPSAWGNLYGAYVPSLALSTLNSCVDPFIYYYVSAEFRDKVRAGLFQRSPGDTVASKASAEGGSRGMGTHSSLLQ
The test is described as follows: Antagonist activity at human PAR4.

Test [3] concerns the target T3, Proteinase-activated receptor 1 (Homo sapiens, UniProt P25116).
T3 sequence (P25116 whole entry): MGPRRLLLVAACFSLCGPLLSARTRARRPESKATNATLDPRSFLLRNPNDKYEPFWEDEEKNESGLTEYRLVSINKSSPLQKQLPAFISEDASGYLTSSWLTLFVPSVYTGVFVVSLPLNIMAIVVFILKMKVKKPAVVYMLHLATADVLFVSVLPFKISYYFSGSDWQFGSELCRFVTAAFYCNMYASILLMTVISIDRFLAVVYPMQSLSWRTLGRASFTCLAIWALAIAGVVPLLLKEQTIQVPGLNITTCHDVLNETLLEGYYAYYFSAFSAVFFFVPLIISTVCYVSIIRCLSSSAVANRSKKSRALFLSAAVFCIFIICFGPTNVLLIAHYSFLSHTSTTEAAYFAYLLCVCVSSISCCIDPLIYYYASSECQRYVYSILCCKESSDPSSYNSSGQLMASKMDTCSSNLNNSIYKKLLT
Description: Antagonist activity at human PAR1.

Turning to `C[C@@H](C1CCCCC1)n1c(-c2cc3c(cc2Br)OCO3)nc2cc(C(=O)Nc3ccc(C#N)cc3)ccc21`, the half-maximal inhibitory concentration (IC50) was below 2.5 nM in test [1], 380 nM in test [2] and above 50000 nM in test [3].

Broadly, the IC50 is the concentration at which inhibition is half-maximal.
